Results from patent US20250009931A1 (GEL4MED, INC., priority 2021, published 2025).
Square brackets hold non-standard residues; d marks the D form. Ends that are not written are not given here.

Columns and labels:
[1] = cited from earlier work
[2] = Net charge and isoelectric point of peptide; type: physicochemical; conditions: pH 7
From the text: The peptide may be purified. For example, the peptide may be lyophilized. […] Other peptides are within the scope of the disclosure.
Exemplary peptides having a charge of +5 to +9 include […](d)[…], […](d)[…], and […](d)[…]. In other embodiments, the purified peptide may be substantially neutral. […] Net charge may be selected by peptide design. Design of electrostatic charge in the peptide hydrogel may allow control of charge interaction with cell membrane and proteins.

For `O=C(O)C(F)(F)F` [trifluoroacetic acid], the pKa [1] is given as “about 0”.

For “VEVSVSVEVPPTEVSVEVEV (VEVSVSVEV[dP]PTEVSVEVEV)”, the net charge [2] was “net negative charge”.
